Laboratory results published in PubChem BioAssay (NCI).
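Results reflect a 48-hour exposure of cells in 96-well plates to compound at five concentrations. Definition used: TGI = concentration required for complete inhibition of growth.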

Legend:
Assay in all cases: NCI anticancer screen, dose series, 48 h
HS 578T breast = system: HS 578T breast
U251 CNS = system: U251 CNS
SNB-75 CNS = system: SNB-75 CNS
HCT-15 colon = system: HCT-15 colon
SF-295 CNS = system: SF-295 CNS
HOP-62 NSCLC = system: HOP-62 NSCLC
SK-OV-3 ovarian = system: SK-OV-3 ovarian
SN12C renal = system: SN12C renal
BT-549 breast = system: BT-549 breast
HCC-2998 colon = system: HCC-2998 colon

C=C(C)COC(=O)COCC(=O)OCC(=C)C
TGI (HS 578T breast): > 100 µM | TGI (U251 CNS): > 100 µM | TGI (SNB-75 CNS): > 100 µM | TGI (HCT-15 colon): > 100 µM | TGI (SF-295 CNS): > 100 µM | TGI (HOP-62 NSCLC): > 100 µM | TGI (SK-OV-3 ovarian): > 100 µM | TGI (SN12C renal): > 100 µM | TGI (BT-549 breast): > 100 µM | TGI (HCC-2998 colon): > 100 µM

CC(=O)NC1=CC(=O)C=C(Cl)C1=O
TGI (HS 578T breast): > 100 µM | TGI (U251 CNS): > 100 µM | TGI (SNB-75 CNS): > 100 µM | TGI (HCT-15 colon): > 100 µM | TGI (SF-295 CNS): > 100 µM | TGI (HOP-62 NSCLC): > 100 µM | TGI (SK-OV-3 ovarian): > 100 µM | TGI (SN12C renal): > 100 µM | TGI (BT-549 breast): > 100 µM | TGI (HCC-2998 colon): > 100 µM

O=C(CSCC(=O)N/N=C/c1ccncc1)N/N=C/c1ccncc1
TGI (HS 578T breast): > 100 µM | TGI (U251 CNS): > 100 µM | TGI (SNB-75 CNS): > 100 µM | TGI (HCT-15 colon): > 100 µM | TGI (SF-295 CNS): > 100 µM | TGI (HOP-62 NSCLC): > 100 µM | TGI (SK-OV-3 ovarian): > 100 µM | TGI (SN12C renal): > 100 µM | TGI (BT-549 breast): > 100 µM | TGI (HCC-2998 colon): > 100 µM

O=c1c2cc([N+](=O)[O-])cnc2sn1-c1ccc(Br)cc1
TGI (HS 578T breast): > 100 µM | TGI (U251 CNS): > 100 µM | TGI (SNB-75 CNS): > 100 µM | TGI (HCT-15 colon): > 100 µM | TGI (SF-295 CNS): 47.1 µM | TGI (HOP-62 NSCLC): > 100 µM | TGI (SK-OV-3 ovarian): 99 µM | TGI (SN12C renal): > 100 µM | TGI (BT-549 breast): > 100 µM | TGI (HCC-2998 colon): > 100 µM

CC(=O)Nc1ccc2c3c(cc(O)c2c1)N(C(=O)CCCCCC(=O)Nc1ccc2c4c(cc(O)c2c1)N(C(=O)OC(C)(C)C)CC4CCl)CC3CCl (centres undefined)
TGI (HS 578T breast): > 26.9 µM | TGI (U251 CNS): 6.75 µM | TGI (SNB-75 CNS): 5.22 µM | TGI (HCT-15 colon): > 100 µM | TGI (SF-295 CNS): > 45.9 µM | TGI (HOP-62 NSCLC): 12 µM | TGI (SK-OV-3 ovarian): > 47.6 µM | TGI (SN12C renal): > 38.3 µM | TGI (BT-549 breast): 10.9 µM | TGI (HCC-2998 colon): 3.69 µM

Cc1ccc2nnc(NS(=O)(=O)c3cc(C)c(Cl)cc3S)n2n1
TGI (HS 578T breast): > 100 µM | TGI (U251 CNS): > 100 µM | TGI (SNB-75 CNS): > 100 µM | TGI (HCT-15 colon): > 100 µM | TGI (HOP-62 NSCLC): > 100 µM | TGI (SK-OV-3 ovarian): > 100 µM | TGI (SN12C renal): > 100 µM | TGI (BT-549 breast): > 100 µM | TGI (HCC-2998 colon): > 100 µM

O=c1ccc2nc3ccc(O)cc3oc-2c1
TGI (HS 578T breast): > 60 µM | TGI (U251 CNS): > 100 µM | TGI (SNB-75 CNS): 22 µM | TGI (HCT-15 colon): > 100 µM | TGI (SF-295 CNS): > 100 µM | TGI (HOP-62 NSCLC): > 100 µM | TGI (SK-OV-3 ovarian): > 100 µM | TGI (SN12C renal): > 100 µM | TGI (BT-549 breast): 44 µM | TGI (HCC-2998 colon): > 100 µM

Nc1c(O)c(C(=O)O)cc2ccccc12
TGI (HS 578T breast): > 100 µM | TGI (U251 CNS): > 100 µM | TGI (SNB-75 CNS): 53.5 µM | TGI (HCT-15 colon): > 100 µM | TGI (SF-295 CNS): > 100 µM | TGI (HOP-62 NSCLC): > 100 µM | TGI (SK-OV-3 ovarian): > 100 µM | TGI (SN12C renal): > 100 µM | TGI (BT-549 breast): 60.3 µM | TGI (HCC-2998 colon): > 100 µM

Cc1cc(C)nc(NS(=O)(=O)c2ccc(NC(=O)c3ccc4nc5ccccc5c(Nc5ccc(S(=O)(=O)Nc6nc(C)cc(C)n6)cc5)c4c3)cc2)n1
TGI (HS 578T breast): > 100 µM | TGI (U251 CNS): > 100 µM | TGI (SNB-75 CNS): > 100 µM | TGI (HCT-15 colon): > 100 µM | TGI (SF-295 CNS): > 100 µM | TGI (HOP-62 NSCLC): > 100 µM | TGI (SK-OV-3 ovarian): > 100 µM | TGI (SN12C renal): > 100 µM | TGI (BT-549 breast): 69.7 µM | TGI (HCC-2998 colon): > 100 µM

COc1cc(C2SC(N)=Nc3c2c(C)nn3C(=O)c2ccc(Cl)cc2)ccc1O (centres undefined)
TGI (HS 578T breast): > 10 µM | TGI (U251 CNS): > 10 µM | TGI (SNB-75 CNS): > 10 µM | TGI (HCT-15 colon): > 10 µM | TGI (SF-295 CNS): > 10 µM | TGI (HOP-62 NSCLC): > 10 µM | TGI (SK-OV-3 ovarian): > 10 µM | TGI (SN12C renal): > 10 µM | TGI (BT-549 breast): > 10 µM | TGI (HCC-2998 colon): > 10 µM

O=c1cc(-c2cccc(Br)c2)[nH]c2cc3c(cc12)OCO3
TGI (HS 578T breast): 26 µM | TGI (U251 CNS): 11.4 µM | TGI (SNB-75 CNS): 10.5 µM | TGI (HCT-15 colon): > 77.6 µM | TGI (SF-295 CNS): 6.52 µM | TGI (HOP-62 NSCLC): 4.8 µM | TGI (SK-OV-3 ovarian): 17 µM | TGI (SN12C renal): > 55.9 µM | TGI (BT-549 breast): 14.4 µM | TGI (HCC-2998 colon): 63 µM

COc1ccc(-c2cc(-c3ccccc3)nc(N)n2)c(O)c1
TGI (HS 578T breast): > 100 µM | TGI (U251 CNS): > 100 µM | TGI (SNB-75 CNS): > 100 µM | TGI (HCT-15 colon): > 100 µM | TGI (SF-295 CNS): > 100 µM | TGI (HOP-62 NSCLC): > 100 µM | TGI (SK-OV-3 ovarian): > 100 µM | TGI (SN12C renal): > 100 µM | TGI (BT-549 breast): > 29.3 µM | TGI (HCC-2998 colon): > 100 µM

CCO/N=C(/CC)c1ccc(Br)s1
TGI (HS 578T breast): > 100 µM | TGI (U251 CNS): > 100 µM | TGI (SNB-75 CNS): > 100 µM | TGI (HCT-15 colon): > 100 µM | TGI (SF-295 CNS): > 100 µM | TGI (HOP-62 NSCLC): > 100 µM | TGI (SK-OV-3 ovarian): > 100 µM | TGI (SN12C renal): > 100 µM | TGI (BT-549 breast): > 100 µM | TGI (HCC-2998 colon): > 100 µM

COC(=O)/C=C/N1CC1
TGI (HS 578T breast): > 10 µM | TGI (U251 CNS): > 10 µM | TGI (SNB-75 CNS): > 10 µM | TGI (HCT-15 colon): > 10 µM | TGI (SF-295 CNS): > 10 µM | TGI (HOP-62 NSCLC): > 10 µM | TGI (SK-OV-3 ovarian): > 10 µM | TGI (SN12C renal): > 10 µM | TGI (BT-549 breast): > 10 µM | TGI (HCC-2998 colon): > 10 µM

NC1=CN(Cc2ccccc2)C2=N/C(=C\c3ccco3)C(=O)N12
TGI (HS 578T breast): > 100 µM | TGI (U251 CNS): > 100 µM | TGI (SNB-75 CNS): > 100 µM | TGI (HCT-15 colon): > 100 µM | TGI (SF-295 CNS): > 100 µM | TGI (HOP-62 NSCLC): > 100 µM | TGI (SK-OV-3 ovarian): > 100 µM | TGI (SN12C renal): > 100 µM | TGI (BT-549 breast): > 100 µM | TGI (HCC-2998 colon): > 100 µM

NNC(=O)CSc1nnc(CCCCCCCCc2nnc(SCC(=O)NN)o2)o1
TGI (HS 578T breast): > 100 µM | TGI (U251 CNS): > 100 µM | TGI (SNB-75 CNS): > 100 µM | TGI (HCT-15 colon): > 100 µM | TGI (SF-295 CNS): > 100 µM | TGI (HOP-62 NSCLC): > 100 µM | TGI (SK-OV-3 ovarian): > 100 µM | TGI (SN12C renal): > 100 µM | TGI (BT-549 breast): > 100 µM | TGI (HCC-2998 colon): > 100 µM

Cc1cccc2c(=O)c3c(O)cc4c(c3n(C)c12)C=CC(C)(C)O4
TGI (HS 578T breast): > 100 µM | TGI (U251 CNS): > 100 µM | TGI (SNB-75 CNS): > 100 µM | TGI (HCT-15 colon): > 100 µM | TGI (SF-295 CNS): > 100 µM | TGI (HOP-62 NSCLC): > 100 µM | TGI (SK-OV-3 ovarian): > 100 µM | TGI (SN12C renal): > 100 µM | TGI (BT-549 breast): > 100 µM | TGI (HCC-2998 colon): > 100 µM
